Experimental findings from patent US8551984B2, “Aminopyrimidines as SYK inhibitors” (Merck Sharp & Dohme Corp., priority 2009, dated 2013) are described below.

Where only a bound is given, the exact number is not on record here.

The assay deals with recombinant human SYK (GST-hSYK fusion protein) (Homo sapiens, UniProt P43405). The assay can be described thus: biochemical. As to conditions: rhSYK Activity (IC50), recombinant human GST-SYK 5 pM, ATP 25 μM, biotinylated substrate peptide 250 nM, HTRF, 10-dose titration.
Source text: Homogeneous Time-Resolved Fluorescence (HTRF) Assay for the Recombinant Human SYK Enzyme:
The IC50 is the concentration that inhibits the measured activity by half. With `CCn1cc(NCc2ncc(-c3cc(C)cc(Nc4nccc(C(F)(F)F)n4)c3)s2)nn1` [Example 88A-26], the IC50 is below 100 nM.
Consider `Cc1cc(Nc2nccc(C(F)(F)F)n2)cc(-c2cnc(CN(C)CC(O)CO)s2)c1` (stereo not drawn) [Example 88A-28], for which the IC50 is below 100 nM.
Take `Cc1cc(Nc2nccc(C(F)(F)F)n2)cc(-c2cnc(CNC3CCCCNC3=O)s2)c1` (stereo not drawn) [Example 88A-29]: the IC50 is below 100 nM.
`Cc1cc(Nc2nccc(C(F)(F)F)n2)cc(-c2cnc(CNCCN3CCNC(=O)C3)s2)c1` [Example 88A-30]: the IC50 was below 100 nM.
The value for `CNS(=O)(=O)CCNCc1ncc(-c2cc(C)cc(Nc3nccc(C(F)(F)F)n3)c2)s1` [Example 88A-31] was below 100 nM; that for `Cc1cc(Nc2nccc(C(F)(F)F)n2)cc(-c2cnc(CNc3cc(C(=O)O)n[nH]3)s2)c1` [Example 88A-32] was below 100 nM; that for `Cc1cc(Nc2nccc(C(F)(F)F)n2)cc(-c2cnc(CNCC(C)(C)O)s2)c1` [Example 88A-33] was below 100 nM.
The value for `Cc1cc(Nc2nccc(C(F)(F)F)n2)cc(-c2cnc(CNC3CCNC3=O)s2)c1` (stereo not drawn) [Example 88A-35] was below 100 nM; that for `Cc1cc(Nc2nccc(C(F)(F)F)n2)cc(-c2cnc(CNC3CNC(=O)C3)s2)c1` (stereo not drawn) [Example 88A-36] was below 100 nM.
Consider `Cc1cc(Nc2nccc(C(F)(F)F)n2)cc(-c2cnc(C(C)N(C)C)s2)c1` (stereo not drawn) [Example 88A-38], for which the IC50 is below 100 nM.
The value for `Cc1cc(Nc2nccc(C(F)(F)F)n2)cc(-c2cnc(C(C)NC3CNC(=O)C3)s2)c1` (stereo not drawn) [Example 88A-39] was below 100 nM.
To `Cc1cc(Nc2nccc(C(F)(F)F)n2)cc(-c2cnc(CN)s2)c1` [Example 88A-40] belongs below 100 nM; to `Cc1cc(Nc2nccc(C(F)(F)F)n2)cc(-c2cnc(CNCC(O)CO)s2)c1` (stereo not drawn) [Example 88A-41], below 100 nM.
The value for `Cc1cc(Nc2nccc(C(F)(F)F)n2)cc(-c2cnc(CNCCOCCO)s2)c1` [Example 88A-42] was below 100 nM; that for `Cc1cc(Nc2nccc(C(F)(F)F)n2)cc(-c2cnc(CNC(C)(C)CC(C)O)s2)c1` (stereo not drawn) [Example 88A-45] was below 100 nM; that for `Cc1cc(Nc2nccc(C(F)(F)F)n2)cc(-c2cnc(CNCC3(CO)COC3)s2)c1` [Example 88A-46] was below 100 nM.
For the compound `Cc1cc(Nc2nccc(C(F)(F)F)n2)cc(-c2cnc(CNC(CO)(CO)CO)s2)c1` [Example 88A-47], the IC50 was below 100 nM.
The value for `Cc1cc(Nc2nccc(C(F)(F)F)n2)cc(-c2cnc(CNCC3(CO)CCOCC3)s2)c1` [Example 88A-49] was below 100 nM; that for `Cc1cc(Nc2nccc(C(F)(F)F)n2)cc(-c2cnc(CNCCCN(CCO)CCO)s2)c1` [Example 88A-51] was below 100 nM.
Turning to `Cc1cc(Nc2nccc(C(F)(F)F)n2)cc(-c2cnc(CN(CCO)CCS(=O)(=O)O)s2)c1` [Example 88A-52], the IC50 is below 100 nM.
As to `Cc1cc(Nc2nccc(C(F)(F)F)n2)cc(-c2cnc(CN(C)C3COCC3O)s2)c1` (stereo not drawn) [Example 88A-54], the IC50 was below 100 nM.
In the case of `Cc1cc(Nc2nccc(C(F)(F)F)n2)cc(-c2cnc(CNC3(C)CCCCC3CO)s2)c1` (stereo not drawn) [Example 88A-55], the IC50 was below 100 nM.
The value for `Cc1cc(Nc2nccc(C(F)(F)F)n2)cc(-c2cnc(CNC3CS(=O)(=O)CC3O)s2)c1` (stereo not drawn) [Example 88A-57] was below 100 nM.
For `CCN(Cc1ncc(-c2cc(C)cc(Nc3nccc(C(F)(F)F)n3)c2)s1)C1CS(=O)(=O)CC1O` (stereo not drawn) [Example 88A-58], the IC50 is below 100 nM.
With `CNC(=O)NCc1ncc(-c2cc(C)cc(Nc3nccc(C(F)(F)F)n3)c2)s1` [Example 88A-61], the IC50 was below 100 nM.
To `CCNC(=O)NCc1ncc(-c2cc(C)cc(Nc3nccc(C(F)(F)F)n3)c2)s1` [Example 88A-62] belongs below 100 nM; to `Cc1cc(Nc2nccc(C(F)(F)F)n2)cc(-c2cnc(CNC(=O)NC(C)C)s2)c1` [Example 88A-63], below 100 nM; to `CCOC(=O)C(C)NC(=O)NCc1ncc(-c2cc(C)cc(Nc3nccc(C(F)(F)F)n3)c2)s1` (stereo not drawn) [Example 88A-64], below 100 nM.
For the compound `Cc1cc(Nc2nccc(C(F)(F)F)n2)cc(-c2cnc(CN3CCCC(C)(O)C3)s2)c1` (stereo not drawn) [Example 88B-1], the IC50 is below 100 nM.
The value for `Cc1cc(Nc2nccc(C(F)(F)F)n2)cc(-c2cnc(CN3CCC(C)(O)C3)s2)c1` (stereo not drawn) [Example 88B-2] was below 100 nM; that for `Cc1cc(Nc2nccc(C(F)(F)F)n2)cc(-c2cnc(CN3CC[S+]([O-])CC3)s2)c1` [Example 88B-3] was below 100 nM.
The value for `Cc1cc(Nc2nccc(C(F)(F)F)n2)cc(-c2cnc(CN3CCC[S+]([O-])CC3)s2)c1` (stereo not drawn) [Example 88B-4] was below 100 nM; that for `Cc1cc(Nc2nccc(C(F)(F)F)n2)cc(-c2cnc(CN3CCC(C)(O)CC3)s2)c1` [Example 88B-5] was below 100 nM; that for `CC(=O)N1CCN(Cc2ncc(-c3cc(C)cc(Nc4nccc(C(F)(F)F)n4)c3)s2)CC1` [Example 88B-6] was below 100 nM.
The value for `Cc1cc(Nc2nccc(C(F)(F)F)n2)cc(-c2cnc(CN3CCNC(=O)CC3)s2)c1` [Example 88B-7] was below 100 nM; that for `Cc1cc(Nc2nccc(C(F)(F)F)n2)cc(-c2cnc(CN3CCCNC(=O)C3)s2)c1` [Example 88B-8] was below 100 nM.
For `Cc1cc(Nc2nccc(C(F)(F)F)n2)cc(-c2cnc(CN3CCN(S(C)(=O)=O)CC3)s2)c1` [Example 88B-9], the IC50 was below 100 nM.
To `Cc1cc(Nc2nccc(C(F)(F)F)n2)cc(-c2cnc(CN3CCCC(C(N)=O)C3)s2)c1` (stereo not drawn) [Example 88B-10] belongs below 100 nM.
`Cc1cc(Nc2nccc(C(F)(F)F)n2)cc(-c2cnc(CN3CCOC(CCO)C3)s2)c1` (stereo not drawn) [Example 88B-11]: the IC50 was below 100 nM.
To `COCC1CN(Cc2ncc(-c3cc(C)cc(Nc4nccc(C(F)(F)F)n4)c3)s2)CCO1` (stereo not drawn) [Example 88B-13] belongs below 100 nM; to `Cc1cc(Nc2nccc(C(F)(F)F)n2)cc(-c2cnc(CN3CCOC(CC(=O)O)C3)s2)c1` (stereo not drawn) [Example 88B-14], below 100 nM.
In the case of `Cc1cc(Nc2nccc(C(F)(F)F)n2)cc(-c2cnc(CN3CCC(P(=O)(O)O)C3)s2)c1` (stereo not drawn) [Example 88B-15], the IC50 was below 100 nM.
With `Cc1cc(Nc2nccc(C(F)(F)F)n2)cc(-c2cnc(CN3CC(COP(C)(C)=O)C3)s2)c1` [Example 88B-16], the IC50 is below 100 nM.
The value for `Cc1cc(Nc2nccc(C(F)(F)F)n2)cc(-c2cnc(CN3CCP(=O)(C(C)C)CC3)s2)c1` [Example 88B-17] was below 100 nM; that for `Cc1cc(Nc2nccc(C(F)(F)F)n2)cc(-c2cnc(CO)s2)c1` [Example 89, [5-(3-methyl-5-{[4-(trifluoromethyl)pyrimidin-2-yl]amino}phenyl)-1,3-thiazol-2-yl]methanol] was below 100 nM.
The value for `Cc1cc(Nc2nccc(C(F)(F)F)n2)cc(-c2cnc(CBr)s2)c1` [Example 90, N-{3-[2-(bromomethyl)-1,3-thiazol-5-yl]-5-methylphenyl}-4-(trifluoromethyl)pyrimidin-2-amine] was below 100 nM; that for `CCOC(=O)C1(Cc2ncc(-c3cc(C)cc(Nc4nccc(C(F)(F)F)n4)c3)s2)CCNC1=O` (stereo not drawn) [Example 91, Ethyl 3-{[5-(3-methyl-5-{[4-(trifluoromethyl)pyrimidin-2-yl]amino}phenyl)-1,3-thiazol-2-yl]-methyl}-2-oxopyrrolidine-3-carboxylate] was below 100 nM; that for `Cc1cc(Nc2nccc(C(F)(F)F)n2)cc(-c2cnc(CC3(C(=O)O)CCNC3=O)s2)c1` (stereo not drawn) [Example 92, 3-{[5-(3-methyl-5-{[4-(trifluoromethyl)pyrimidin-2-yl]amino}phenyl)-1,3-thiazol-2-yl]methyl}-2-oxopyrrolidine-3-carboxylic acid] was below 100 nM.
The value for `Cc1cc(Nc2nccc(C(F)(F)F)n2)cc(-c2cnc(CN3CCOC3=O)s2)c1` [Example 92-1] was below 100 nM; that for `Cc1cc(Nc2nccc(C(F)(F)F)n2)cc(-c2cnc(CN3CCCC3=O)s2)c1` [Example 92-2] was below 100 nM; that for `Cc1cc(Nc2nccc(C(F)(F)F)n2)cc(-c2cnc(CN3CCN(C)C3=O)s2)c1` [Example 92-3] was below 100 nM.
As to `Cc1cc(Nc2nccc(OC3CNC3)n2)cc(-c2cnc(C3(O)CCC3)s2)c1` [Example 93, 1-[5-(3-{[4-(azetidin-3-yloxy)pyrimidin-2-yl]amino}-5-methylphenyl)-1,3-thiazol-2-yl]cyclobutanol], the IC50 is below 100 nM.
The value for `Cc1cc(Nc2nccc(OC3COC3)n2)cc(-c2cnc(C3(O)CCC3)s2)c1` [Example 94, 1-[5-(3-methyl-5-{[4-(oxetan-3-yloxy)pyrimidin-2-yl]amino}phenyl)-1,3-thiazol-2-yl]cyclobutanol] was below 100 nM; that for `Cc1cc(Nc2nccc(OCc3ccncc3)n2)cc(-c2cnc(C3(O)CCC3)s2)c1` [Example 94A-1] was below 100 nM.
The value for `Cc1cc(Nc2nccc(OCc3cccnc3)n2)cc(-c2cnc(C3(O)CCC3)s2)c1` [Example 94A-2] was below 100 nM; that for `Cc1cc(Nc2nccc(OCc3ccccn3)n2)cc(-c2cnc(C3(O)CCC3)s2)c1` [Example 94A-3] was below 100 nM; that for `Cc1cc(Nc2nccc(OCC3COCCO3)n2)cc(-c2cnc(C3(O)CCC3)s2)c1` (stereo not drawn) [Example 94A-4] was below 100 nM.
To `Cc1cc(Nc2nccc(OCCC3CCOCC3)n2)cc(-c2cnc(C3(O)CCC3)s2)c1` [Example 94A-5] belongs below 100 nM.
With `Cc1cc(Nc2ncc(F)c(OC3CCOC3)n2)cc(-c2cnc(C3(O)CCC3)s2)c1` (stereo not drawn) [Example 94A-6], the IC50 lay within 100 to 1000 nM.
The value for `Cc1cc(Nc2nccc(OCC3CCOCC3)n2)cc(-c2cnc(C3(O)CCC3)s2)c1` [Example 94A-7] was below 100 nM; that for `Cc1cc(Nc2nccc(O[C@@H]3CCOC3)n2)cc(-c2cnc(C3(O)CCC3)s2)c1` [Example 94A-8] was below 100 nM.
Turning to `Cc1cc(Nc2nccc(OCCOCc3ccccc3)n2)cc(-c2cnc(C3(O)CCC3)s2)c1` [Example 94A-9], the IC50 is 100 to 1000 nM.
To `Cc1cc(Nc2nccc(O[C@H]3CCOC3)n2)cc(-c2cnc(C3(O)CCC3)s2)c1` [Example 94A-10] belongs below 100 nM.
